From US20070092454A1, “Oral composition containing morin” (Colgate-Palmolive Company, priority 2005, published 2007)

Test: LPO-CC Kamiya Bioscience kit anti-oxidant efficacy assay (methylene blue, optical density at 674 nm)
Type: biochemical
Settings: simple composition containing 1.0% by weight of active; compared with 1.0% vitamin E; FIG. 1; lower optical density at 674 nm = better efficacy
Text: Reaction processes in the kit used can be summarized as follows. Cumene hydroperoxide (CHO) is combined with an enzyme mixture of ascorbic oxidase and lipoprotein lipase in order to produce lipid peroxide. Samples and standards are then combined with a second reagent containing methyl carbamate (MCDP) and hemoglobin. In the presence of hemoglobin, lipid peroxides are converted to lipid alcohols which in turn convert the MCDP to methylene blue that can be read at 674 nm. This translates to decreased color intensity which is measured by spectroscopy at 674 nm. […] In other words, the lower the optical density reading the better the anti-oxidant efficacy.

O=c1c(O)c(-c2ccc(O)cc2O)oc2cc(O)cc(O)c12 [morin, 2′,3,4′,5,7-pentahydroxyflavone]
anti-oxidative efficacy: anti-oxidative efficacy as good as positive control vitamin E
